“And” between values parts separate entries of the source, which are not always exact repeats. Equal entries are not always repeated.
Tests used:
[1] = test system: CREB phosphorylation; assay: CREB phosphorylation in HL-60 cells; assay type: cell-based, human
Excerpt: FIG. 12, panels A-D, illustrates the results of CyTOF Phenotyping and Compound A Combination Studies. […] Viability for Compound A treatment alone was 87.4±7.3%, versus 55.3±3.4% and 49.5±2.3% when combined with ERK and RSK inhibitors, respectively (* indicates p<0.05 compared to cells treated with Compound A alone). Panel D) Compound A inhibits CREB phosphorylation in the presence of serum. HL-60 cells were serum-starved then stimulated with serum.
Cells were lysed in RIPA buffer (Sigma), and the protein concentrations were determined by BCA assay (Thermo Scientific Pierce). Lysates were solubilized in 6×SDS PAGE buffer and […] of protein was loaded into 6-15% SDS PAGE gels, pheresed, and then transferred onto […] PVDF membrane (Millipore). Primary antibodies were applied at a dilution of 1:1000. Anti-Bcl-2, -Bax, -Mcl-1, -Bcl-XL, -Cyclin A and -Cyclin D1 antibodies were purchased from Cell Signaling Technologies. Anti-total acetylated histone and -ac-H3K27 were purchased from Santa Cruz Biotechnologies. Anti-actin and -CREB antibodies were purchased from upstate. Secondary antibodies were used at a 1:2500 dilution and purchased from Thermo Scientific/Pierce. WesternBright ECL was used for image acquisition on Image Lab software (Bio-Rad).

[2] = test system: human AML patient sample cells (#186); assay: Primary AML patient sample (#186) xenograft in NSG mice; assay type: in vivo; conditions: 2.3 mg/kg IV once daily
Description: For AML xenograft mouse experiments, HL-60 cells (2×10^6) expressing firefly luciferase and GFP, or cryopreserved human AML patient cells (5×10^6), were injected through the tail vein into NOD.Cg-prkdc^scid Il2rg^tm1WjlSzJ (NSG) mice. Mice were then Compound A or 10% DMSO, injected intravenously by tail vein daily, until death or an endpoint was reached (moribundity) in accordance with the animal care institutional guidelines. All mouse experiments were subject to institutional approval by Stanford University Institutional Animal Care and Use Committee. Leukemia progression in mice at the indicated time points was monitored using an in vivo IVIS 100 bioluminescenceoptical imaging system (Xenogen Corporation). D-Luciferin (Promega) dissolved in sterile phosphate-buffered saline was injected intraperitoneally at a dose of […], 15 minutes before measuring the luminescent signal. General anesthesia was induced with […] and continued during the procedure using a nose cone. […]
To examine the efficacy of CREB inhibition in an in vivo model of AML, 4-6 week old NOD.Cg-Prkdc^scid Il2rg^tm1WjlSzJ (NSG) mice were tail-vein injected with HL-60 AML cells (2×10^6) expressing Firefly luciferase and GFP. […] The efficacy of Compound A was also assessed in a mouse xenograft model using primary AML cell sample (patient sample #186), using similar methods.

[3] = test system: H3K27 acetylation at CREB-bound genes; assay: Whole-genomic H3K27 histone acetylation analysis in KG-1 cells; assay type: cell-based; conditions: 5 μM
[4] = target: T1, CREB-CBP binding (KID-KIX) (Homo sapiens, UniProt Q92793); assay: Split Renilla luciferase complementation assay; assay type: cell-based; conditions: 293T cells treated with forskolin; read-out: IC50, inhibition of the interaction between CREB and CBP
T1 construct: the KID and KIX domains were fused to the N- and C-terminal regions of Renilla luciferase, respectively; expressed in transfected cells; host or cells: 293T cells treated with forskolin
Description: KG-1 cell lines were created to express luciferase in a CREB-dependent or non-CREB-dependent fashion using lentiviral gene delivery. Cells were sorted for mCherry expression by flow cytometry and selected with puromycin. Luciferase activity was measured on a […] using the Promega Luciferase Activity Kit (Promega) per manufacturer's instructions following six hours of treatment with Compound A or 0.1% DMSO. The split Renilla luciferase complementation assay has been described previously (Li BX, and Xiao X. Discovery of a small-molecule inhibitor of the KIX-KID interaction. Chembiochem: a European journal of chemical biology. 2009; 10(17):2721-4). In this assay, the KID and KIX domains were fused to the N- and C-terminal regions of Renilla luciferase, respectively. Once KIX binds phosphorylated KID, the Renilla luciferase regions were brought together, resulting in luciferase activity.
To test the ability of Compound A to disrupt CREB-CBP binding in cells, a split Renilla luciferase complementation assay was performed. […] This early timepoint was selected to permit accurate reporter gene activity measurement prior to the onset of anticipated global cell dysfunction or death induced by Compound A. Treatment with 3 μM Compound A reduced luciferase activity by 33.2±7.7% at this timepoint. […] Thus, Compound A inhibits CREB function through disruption of CREB:CBP interaction.

[5] = test system: HL-60 AML cells; assay: HL-60 AML xenograft in NSG mice; assay type: in vivo; conditions: for GFP+ cells in bone marrow / GFP+ cells in spleen / spleen weight: endpoint
Description: For AML xenograft mouse experiments, HL-60 cells (2×10^6) expressing firefly luciferase and GFP, or cryopreserved human AML patient cells (5×10^6), were injected through the tail vein into NOD.Cg-prkdc^scid Il2rg^tm1WjlSzJ (NSG) mice. Mice were then Compound A or 10% DMSO, injected intravenously by tail vein daily, until death or an endpoint was reached (moribundity) in accordance with the animal care institutional guidelines. All mouse experiments were subject to institutional approval by Stanford University Institutional Animal Care and Use Committee. Leukemia progression in mice at the indicated time points was monitored using an in vivo IVIS 100 bioluminescenceoptical imaging system (Xenogen Corporation). D-Luciferin (Promega) dissolved in sterile phosphate-buffered saline was injected intraperitoneally at a dose of 2.5 mg/kg, 15 minutes before measuring the luminescent signal. General anesthesia was induced with […] and continued during the procedure using a nose cone. Analysis was performed on Living Image In Vivo imaging software (Perkin-Elmer). Imaging was performed in collaboration with the Stanford Small Animal Imaging Facility. Bone marrow was aspirated from bone marrow cavities, and GFP+ cells were sorted using the FACSCalibur flow cytometer (BD Biosciences).
To examine the efficacy of CREB inhibition in an in vivo model of AML, 4-6 week old NOD.Cg-Prkdc^scid Il2rg^tm1WjlSzJ (NSG) mice were tail-vein injected with HL-60 AML cells (2×10^6) expressing Firefly luciferase and GFP. Groups of ten mice received 10% DMSO or 2.3 mg/kg Compound A intravenously (IV) once daily starting the day after cell injection (immediate treatment groups), or one of the same two treatments starting seven days after AML cell injection (delayed treatment groups). This dose of Compound A was selected, as it was the maximum deliverable IV injection concentration and volume in 10% DMSO solution per gram mouse body weight. […] The efficacy of Compound A was also assessed in a mouse xenograft model using primary AML cell sample (patient sample #186), using similar methods.

[6] = delayed treatment group (from day 7), 2.3 mg/kg IV once daily
[7] = immediate treatment group, 2.3 mg/kg IV once daily

T1 sequence (Q92793 587-666 limits assumed): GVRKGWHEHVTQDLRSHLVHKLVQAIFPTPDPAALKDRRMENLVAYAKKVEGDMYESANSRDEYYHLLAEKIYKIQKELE

## N#Cc1ccc(NC(=O)c2cc3ccccc3cc2O)cc1 [Compound A, N-(4-cyanophenyl)-3-hydroxy-2-naphthamide]
[1]; HL-60 cells serum-starved then stimulated with serum, 48 hours
  CREB phosphorylation in the presence of serum: CREB phosphorylation decreases
[1]; HL-60 cells, 24 hours
  CREB phosphorylation: increase in CREB phosphorylation
[2]; 80 days
  toxicity: None of the mice treated for 80 days experienced any toxicity
[2]; versus DMSO-treated mice
  survival (Kaplan-Meier): significant survival advantage
[3]
  CREB-bound genes with decreased H3K27 histone acetylation: Greater than 95%
[4]
  IC50: ~3.2 µM and 3.2 µM
[5]; Compound A-treated group
  mean weight of visceral tumors: 0.027 ± 0.019 g
  mice that developed visible visceral tumors (chloromas): 4 of 10
[5]; across groups
  liver weights: no differences in liver weights
[5]; at the time of sacrifice
  circulating leukemia cells (blood counts and smear): none of the Compound A-treated mice had detectable circulating leukemia cells
[5]; delayed group
  GFP+ cells in bone marrow: 19.9±8.22%
  GFP+ cells in spleen: 4.1±1.44%
  spleen weight: 50.6 ± 9.1 mg
[5]; [6]
  mean survival: 26.4 days
  median survival: 24 days
[5]; delayed treatment, 2.3 mg/kg IV once daily, day 17
  average radiance (bioluminescence imaging): 2.8×10^5 p/sec/cm^2/sr
[5]; immediate group
  GFP+ cells in bone marrow: 9.3±1.28%
  GFP+ cells in spleen: 0.64±0.27%
  spleen weight: 43.3 ± 3.6 mg
[5]; [7]
  mean survival: 31.2 days
  median survival: 31 days
